The values that follow come from patent publication US20250176602A1, “Composition for Proliferation of Bacteroides uniformis in the Intestinal Tract” (Asahi Group Holdings, Ltd., priority 2019, published 2025).

The experiment in a line: Fatigue feeling mitigation test, VAS general fatigue feeling (Example 5). Particulars: after 8-week intake, about 1000 mg/day; p<0.05. The class given is in vivo, human. The method, then:
As the test subjects, 86 healthy males at the ages of 20 to 49 who have exercise habits of conducting exercise with an intensity of 5 METs or more for 30 minutes or more once or twice a week and who can continue the exercise habits during the test period as well were selected.
Among the 86 test subjects, 43 test subjects were selected as an α-cyclodextrin (αCD) intake group, and the remaining 43 test subjects were selected as a placebo group. The test subjects themselves were not informed who belonged to which group.
Test Supplements (tablets) having compositions described in Table 4 below were used. One tablet of the test supplements was of about 600 mg.
Each test subject of the αCD intake group and the placebo group was asked to take in 4 tablets of the above test supplements once a day at any timing. That is, each test subject of the α-cyclodextrin intake group was asked to take in about 1000 mg of α-cyclodextrin per day.
The intake period for the test supplements was set to 8 weeks, and the heart rate during exercise was measured, before the start of the intake, after 4-week intake, and after 8-week intake to evaluate change in heart rate. In addition, a questionnaire on fatigue feeling was conducted before the start of the intake of the test supplements and after 8-week intake, and change in travel time was evaluated. […]

Turning to `OC[C@H]1O[C@@H]2O[C@H]3[C@H](O)[C@@H](O)[C@@H](O[C@H]4[C@H](O)[C@@H](O)[C@@H](O[C@H]5[C@H](O)[C@@H](O)[C@@H](O[C@H]6[C@H](O)[C@@H](O)[C@@H](O[C@H]7[C@H](O)[C@@H](O)[C@@H](O[C@H]1[C@H](O)[C@H]2O)O[C@@H]7CO)O[C@@H]6CO)O[C@@H]5CO)O[C@@H]4CO)O[C@@H]3CO` [α-cyclodextrin], the “general fatigue feeling (VAS) immediately after exercise, change vs before intake, compared with placebo group” value is given as “significantly decreased”.
